The data set can be described thus: physchem. Particulars: octanol/water.

With `O=C(c1ccc(C(=C2CCN(Cc3cscn3)CC2)c2cccc3cccnc23)cc1)N1CCCC1`, the logD (usually the decadic logarithm of the distribution of all forms, ionised or not, between an organic phase and buffer at a given pH) was 2.8.

On to `CN(C)C(=O)c1ccc(C(=C2CCN(Cc3cscn3)CC2)c2cccc3cccnc23)cc1`, for which the pH-dependent lipophilicity (logD) turned out to be 2.3.

The molecule `O=C(c1ccc(C(=C2CCN(Cc3cscn3)CC2)c2cccc3cccnc23)cc1)N1CCOCC1` displayed a logD of 2.1.

The molecule `CN1CCN(C(=O)c2ccc(C(=C3CCN(Cc4cscn4)CC3)c3cccc4cccnc34)cc2)CC1` registered a logD of 2.

For the molecule `O=C(c1ccc(C(=C2CCN(Cc3cscn3)CC2)c2cccc3cccnc23)cc1)N1CCC(O)CC1`, the logD turned out to be 1.9.

For the origin of these results see ChEMBL document CHEMBL1944587, “4-Piperidin-4-ylidenemethyl-benzamides as δ-opioid receptor agonists for CNS indications: identifying clinical candidates” (Bioorg Med Chem Lett, 2012).
